Assay results taken from patent US4985430A, “9-acylamino-tetrahydroacridine derivatives and memory enhancing agent containing said derivative as active ingredient” (priority 1987, dated 1991).
Where a name gives a salt, the structure may show the parent alone.

Key:
[1] = test system: human Alzheimer's disease; conditions: in combination with use of lecithin; Summers, N. Engl. J. Med. 315, 1241 (1986); cited from earlier work
[2] = Acute toxicity test, oral, mouse; conditions: in vivo
Method: The compound of the present invention was orally administered to a mouse and acute toxicity value was measured.

[3] = test system: Na^+ dependent high-affinity choline uptake (HACU) of AF64A-treated rat hippocampus; experiment: Na+ dependent high-affinity choline uptake (HACU) in crude synaptosomal fraction of AF64A-treated rat hippocampus; assay type: biochemical; conditions: for Improved ratio (% based on Control): HACU, AF64A-treated rat hippocampus synaptosomal fraction, [3H]choline 1 μM, 37° C.
Method: Effects on Na^+ dependent high-affinity choline uptake (HACU) of AF64A-treated rat hippocampus
According to the method of Fischer et al. [J. Pharm. Exper. Ther., Vol. 222, p. 140 (1982)], AF64A was prepared from AF64. AF64A (1.5 nmole/1.5 μl/side) was injected into rat's both ventricles. After one week, subjecting decapitation, only hippocampus was taken out. It was homogenized with 0.32M of sucrose, centrifuged for 10 minutes at 1000 g, and the supernatant was further centrifuged for 20 minutes at 20,000 g to give crude synaptosomal fraction. The crude synaptosomal fraction and medicament were subjected to incubation at 37° C. for 30 minutes, and after addition of [^3 H]choline (1 μM), they were further subjected to incubation at 37° C. for 10 minutes.
As a control, the crude synaptosomal fraction was subjected to incubation at 37° C. for 30 minutes, and after addition of choline [^3 H]choline (1 μM), it was further subjected to incubation at 37° C. for 10 minutes to use. The reaction was stopped by subjecting filtration on Whatman GF/B filter. Radioactivity on the filter was measured by a liquid scintillation counter and it was made as the HACU amount. An amount of protein was determined according to the method of Bradford. [Analytical Biochemistry, Vol. 72, p. 248 (1976)].

Compound | effectiveness in human Alzheimer's disease [1] | LD50 [2] [mg/kg] | Improved ratio (% based on Control) ([3]; 10^-4 M) [%] | Improved ratio (% based on Control) ([3]; 10^-5 M) [%] | Improved ratio (% based on Control) ([3]; 10^-6 M) [%] | Improved ratio (% based on Control) ([3]; 10^-7 M) [%] | Improved ratio (% based on Control) ([3]; 10^-8 M) [%] | high affinity-choline uptake in hippocampus synaptosome of AF64A-injected rat (activation, in words) ([3]; AF64A injected in cerebral ventricles)
Nc1c2c(nc3ccccc13)CCCC2 [9-Amino-1,2,3,4-tetrahydroacridine, reference compound] | effective to human Alzheimer's disease | 67 | -73 | -11 | 8 | 5 | 2 | could not be found out
CCCC(=O)Nc1c2c(nc3ccccc13)CCCC2 [Example 1, N-(1,2,3,4-tetrahydroacridin-9-yl)butanamide] | – | 1000 | 15 | 31 | 28 | 13 | 20 | –
CC(C)C(=O)Nc1c2c(nc3ccccc13)CCCC2 [Example 3] | – | – | 21 | 19 | 11 | 16 | 13 | –
CCCCC(=O)Nc1c2c(nc3ccccc13)CCCC2 [Example 4] | – | – | 5 | 29 | 3 | 5 | 4 | –
O=C(CN1CCCC1=O)Nc1c2c(nc3ccccc13)CCCC2 [Example 14, 2-(2-oxopyrrolidin-1-yl)-N-(1,2,3,4-tetrahydroacidin-9-yl)acetamide hydrochloride] | – | 2300 | 21 | 17 | 16 | 19 | 12 | –
Cc1ccc2nc3c(c(NC(=O)CN4CCCC4=O)c2c1)CCCC3 [Example 15] | – | – | – | -2 | 28 | -5 | 3 | –
CN1CCc2nc3ccccc3c(NC(=O)CN3CCCC3=O)c2C1 [Example 20] | – | – | 28 | 9 | 23 | 21 | 10 | –
O=C(CN1CCCC1=O)Nc1c2c(nc3ccccc13)CCN(Cc1ccccc1)C2 [Example 21] | – | – | 18 | 32 | 19 | 11 | 10 | –
O=C(CN1CCCC1=O)Nc1c2c(nc3ccccc13)C1CCN2CC1 [Example 22] | – | – | 4 | 30 | 10 | 16 | 13 | –
O=C(CN1CCCC1=O)Nc1c2c(nc3sccc13)CCCC2 [Example 27] | – | – | 9 | 41 | 25 | 19 | 5 | –
O=C(CN1C(=O)CCC1=O)Nc1c2c(nc3ccccc13)CCCC2 [Example 35] | – | – | 26 | 27 | 15 | 26 | 2 | –
O=C1CN(CC(=O)Nc2c3c(nc4ccccc24)CCCC3)C(=O)CN1 [Example 37] | – | 2100 | 39 | 34 | 27 | 9 | 14 | –
CNCC(=O)Nc1c2c(nc3ccccc13)CCCC2 [Example 39, 9-[(2-methylamino)acetyl-amino]-1,2,3,4-tetrahydroacridine] | – | – | -11 | 24 | 16 | 8 | 5 | –
CCOC(=O)CNCC(=O)Nc1c2c(nc3ccccc13)CCCC2 [Example 40] | – | – | 3 | 20 | 14 | 18 | 8 | –
O=C(Cn1ccnc1)Nc1c2c(nc3ccccc13)CCCC2 [Example 41] | – | – | 20 | 46 | 18 | 5 | 5 | –
CC(=O)N(C)CC(=O)Nc1c2c(nc3ccccc13)CCCC2 [Example 42] | – | – | 11 | 29 | 30 | 14 | 11 | –
NC(=O)NCC(=O)Nc1c2c(nc3ccccc13)CCCC2 [Example 46] | – | – | 27 | 13 | 28 | 11 | -8 | –
CNC(=O)N1CCc2nc3ccccc3c(NC(=O)CN3CCCC3=O)c2C1 [Example 50] | – | – | – | 27 | 35 | 20 | 4 | –
CCCC(=O)Nc1c2c(nc3ccccc13)CCC(O)C2 (stereo not drawn) [Example 53, N-(1,2,3,4-tetrahydroacridin-2-ol-9-yl)butanamide] | – | – | 14 | 15 | 23 | 18 | 14 | –
